Values of other authors in PubChem BioAssay AID1259409 (Chemical Carcinogenesis Research Information System (CCRIS), 2018).

Test system: rodent chemically induced tumor inhibition, incidence and multiplicity
Test: CCRIS tumor inhibitor studies
Details: Carcinogen: DIETHYLNITROSAMINE, 55-18-5, N-METHYL-N-NITROSOUREA, 684-93-5, N-BUTYL-N-(4-HYDROXYBUTYL)NITROSAMINE, 3817-11-6, 1,2-DIM, Carcinogen: DIETHYLNITROSAMINE, 55-18-5, N-METHYL-N-NITROSOUREA, 684-93-5, N-BUTYL-N-(4-HYDROXYBUTYL)NITROSAMINE, 3817-11-6, 1,2-DIM, Dose [Inhibitor]: 0, 0.3% IN DIET FOR 23 WK BEGINNING 1 WK POST CARCINOGEN TREATMENT (STUDY DURATION: 28 WK), Route [Inhibitor]: ORAL, Species: RAT, Strain/Sex: F344/MALE, Dose [Carcinogen]: 100 MG/KG BW DEN ONCE, 20 MG/KG BW MNU ONCE ON DAYS 6,9, AND 12, 0.05% BBN IN DRINKING WATER FOR FIRST TWO WK, 40 MG/KG, Dose [Carcinogen]: 100 MG/KG BW DEN ONCE, 20 MG/KG BW MNU ONCE ON DAYS 6,9, AND 12, 0.05% BBN IN DRINKING WATER FOR FIRST TWO WK, 40 MG/KG, Promoter: NONE USED

## C[C@]12CC[C@H](O)CC1=CC[C@@H]1[C@@H]2CC[C@]2(C)C(=O)CC[C@@H]12
Target Tissue: Type of Lesion: LIVER: HEPATOCELLULAR ADENOMA, HYPERPLASTIC NODULES
  tumour outcome (control, treated, inhibition, significance): 2/20 (10%), 15/20 (75%), -650%, p<0.01
Target Tissue: Type of Lesion: LUNG: ADENOCARCINOMA
  tumour outcome (control, treated, inhibition, significance): 1/20 (5%), 0/20 (0%), 100%, not significant
Target Tissue: Type of Lesion: LUNG: ADENOMA
  tumour outcome (control, treated, inhibition, significance): 8/20 (40%), 5/20 (25%), 38%, not significant
Target Tissue: Type of Lesion: SMALL INTESTINE: ADENOCARCINOMA
  outcome: 2/20 (10%), 0/20 (o%), 100%, not significant
Target Tissue: Type of Lesion: SMALL INTESTINE: ADENOMA
  tumour outcome (control, treated, inhibition, significance): 5/20 (25%), 2/20 (10%), 60%, not significant
Target Tissue: Type of Lesion: THYROID: FOLLICULAR ADENOMA
  tumour outcome (control, treated, inhibition, significance): 6/20 (30%), 1/20 (5%), 83%, p<0.05
Target Tissue: Type of Lesion: THYROID: FOLLICULAR CARCINOMA
  tumour outcome (control, treated, inhibition, significance): 1/20 (5%), 2/20 (10%), -100%, not significant
